Laboratory results as given in US20230150997A1, “EIF4E INHIBITORS AND USES THEREOF” (PIC Therapeutics, Inc., priority 2021, published 2023).

Target: T1, Human eIF4E (Homo sapiens, UniProt P06730)
T1 construct: Human eIF4E (aa 28-217) with a C-terminal His-tag; made in house
Assay: Human eIF4E/4G2 binding assay (TR-FRET)
Details: purified human eIF4E (aa 28-217), biotin labeled 4G2 peptide, 4 hours preincubation at room temperature
Description: Example 3. Compound Testing in Human eIF4E/4G2 Binding Assay
Human eIF4E (aa 28-217) with a C-terminal His-tag was expressed in E. coli in inclusion bodies. The protein was solubilized with 8 M urea and purified under denaturing conditions using nickel-charged HisTrap HP columns (GE Healthcare). The purified protein was then refolded by diluting in 20 mM Hepes pH 7.0, 0.5 M NaCl, 1 mM DTT, 1 mM EDTA, 0.5 M arginine plus 6 M urea, and then dialyzing overnight into the same buffer without the urea. The protein was further dialyzed into 20 mM Hepes, pH 6.5, 50 mM NaCl, 1 mM EDTA, 1 mM DTT, and concentrated using Hitrap SP sepharose FF columns (GE Healthcare). The concentrated protein was dialyzed into 20 mM Hepes, pH 7.0, 0.5 M NaCl, 5 mM DTT and 10% glycerol, and stored at -80° C. until use.
Test compounds (3.43 mM stock in DMSO) were diluted 2-fold in series in DMSO (10 concentration points). Compound solutions (1.2 µl/well) were added into black 384-well polypropylene microplates (Matrix, Thermal Scientific). Twenty-two microliters per well of Assay Buffer (50 mM NaPi, pH 6.5, 50 mM KCl, 1 mM DTT and 0.5 mg/ml gamma globulin) and eight microliters per well of 82.5 nM purified eIF4E in Assay Buffer were added. The samples were incubated at room temperature (20-23° C.) for 4 hours. Biotin labeled 4G2 peptide (Ac-Lys-Gln-Tyr-Asp-Arg-Glu-Phe-Leu-Leu-Asp-Phe-Gln-Phe-Met-Pro-Lys(Aha-Bio)-NH2, 1.75 µM stock in DMSO) was diluted to 0.14 µM in Assay Buffer (without DTT) and 5 µl/well was added. The samples were incubated at room temperature for 20 min. Five microliters per well of 6.4 nM Eu-streptavidin (Eu-SA, Perkin Elmer) and 80 nM Allophycocyanin (APC)-anti His antibody (Columbia Biosciences) in Assay Buffer (without DTT) were then added and the samples were incubated at room temperature for 20 min.
Assay signals were monitored by reading excitation at 340 nm and emission fluorescence at 615 nm and 665 nm on an Envision reader (Perkin Elmer). Normalized TR-FRET (time-resolved fluorescence resonance energy transfer) assay signal (Rn) was calculated by the formula: Rn = [(A-Ba-C x D)/(D-Bd)] x (Dc- Bd) • Where A is the fluorescence intensity of the sample at 665 nm, • D is the fluorescence intensity of the sample at 615 nm, • Ba and Bd are plate backgrounds at 665 nm and 615 nm, respectively, • Dc is the fluorescence intensity of 0.78 nM Eu-SA in the assay buffer at 615 nm • The cross-talk factor (C) is determined by the following formula: • C = (Ac- Ba)/(Dc-Bd) • Where Ac is the fluorescence intensity of 0.78 nM Eu-SA in the assay buffer at 665 nm.
IC50 values were calculated using xLFit program (IDBS). Table 2 below lists […] of some compounds, wherein A represents IC50 ≤ 0.5 µM; B represents 0.5 uM < IC50 ≤ 1 µM; and C represents IC50 > 1 µM.

T1 sequence (P06730 28-217): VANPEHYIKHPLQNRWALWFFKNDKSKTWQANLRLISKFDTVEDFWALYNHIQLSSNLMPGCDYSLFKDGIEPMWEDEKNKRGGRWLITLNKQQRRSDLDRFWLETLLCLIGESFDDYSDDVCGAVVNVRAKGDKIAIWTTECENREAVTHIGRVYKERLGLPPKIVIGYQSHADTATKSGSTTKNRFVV

COCCOc1ccc(-c2nc(Nc3ncc(-c4cccs4)cc3C(=O)O)sc2CC(C)(C)C)cc1F [I-65]
IC50: ≤ 500 nM

CCOCCOc1ccc(-c2nc(Nc3ncc(-c4cccs4)cc3C(=O)O)sc2CC(C)C)cc1F [I-66]
IC50: ≤ 500 nM

CC(C)Cc1sc(Nc2ncc(-c3cccs3)cc2C(=O)O)nc1-c1ccc(OCCOC(C)C)c(F)c1 [I-67]
IC50: ≤ 500 nM

COCCOCCOc1ccc(-c2nc(Nc3ncc(-c4cccs4)cc3C(=O)O)sc2CC(C)C)cc1F [I-68]
IC50: 500 to 1000 nM

COc1ccc(-c2nc(Nc3ncc(-c4cccs4)cc3C(=O)O)sc2CCC(C)C)cc1F [I-69]
IC50: ≤ 500 nM

COc1ccc(-c2nc(Nc3ccc(-c4cccs4)nc3C(=O)O)sc2CC(C)C)cc1F [I-70]
IC50: ≤ 500 nM

COc1ccc(-c2nc(Nc3cnc(-c4cccs4)cc3C(=O)O)sc2CC(C)C)cc1F [I-71]
IC50: 500 to 1000 nM

COCCOc1ccc(-c2nc(Nc3ncc(-c4cccs4)cc3C(=O)O)sc2CC2CCCCC2)cc1F [I-72]
IC50: ≤ 500 nM

COc1cc(-c2nc(Nc3ncc(-c4cccs4)cc3C(=O)O)sc2CC(C)C)ccc1F [I-73]
IC50: 500 to 1000 nM

COc1cc(-c2nc(Nc3ncc(-c4cccs4)cc3C(=O)O)sc2CC(C)C)ccc1Cl [I-74]
IC50: ≤ 500 nM

COCCOc1cc(-c2nc(Nc3ncc(-c4cccs4)cc3C(=O)O)sc2CC(C)C)ccc1C(F)(F)F [I-76, 2-((5-isobutyl-4-(3-(2-methoxyethoxy)-4-(trifluoromethyl)phenyl)thiazol-2-yl)amino)-5-(thiophen-2-yl)nicotinic acid]
IC50: ≤ 500 nM

COc1cc(-c2nc(Nc3ncc(-c4cccs4)cc3C(=O)O)sc2CC(C)C)ccc1C(F)(F)F [I-77]
IC50: ≤ 500 nM

COc1cccc(-c2nc(Nc3ncc(-c4cccs4)cc3C(=O)O)sc2CC(C)C)c1 [I-78]
IC50: ≤ 500 nM

CCOc1cccc(-c2nc(Nc3ncc(-c4cccs4)cc3C(=O)O)sc2CC(C)C)c1 [I-79]
IC50: ≤ 500 nM

CCOc1cc(-c2nc(Nc3ncc(-c4cccs4)cc3C(=O)O)sc2CC(C)C)ccc1Cl [I-80]
IC50: ≤ 500 nM

CCOc1cc(-c2nc(Nc3ncc(-c4cccs4)cc3C(=O)O)sc2CC(C)C)ccc1F [I-81]
IC50: ≤ 500 nM

COc1cc(-c2nc(Nc3ncc(-c4cccs4)cc3C(=O)O)sc2CCC(C)C)ccc1F [I-82]
IC50: ≤ 500 nM

COCCOc1cc(-c2nc(Nc3ncc(-c4cccs4)cc3C(=O)O)sc2CCC(C)C)ccc1Cl [I-83]
IC50: ≤ 500 nM

COCCOc1cc(-c2nc(Nc3ncc(-c4cccs4)cc3C(=O)O)sc2CCC(C)C)ccc1F [I-84]
IC50: ≤ 500 nM

CC(C)Cc1sc(Nc2ncc(-c3cccs3)cc2C(=O)O)nc1-c1ccc(F)c(OC(C)C)c1 [I-86]
IC50: ≤ 500 nM

CC(C)Cc1sc(Nc2ncc(-c3cccs3)cc2C(=O)O)nc1-c1ccc(F)c(OCCOC(C)C)c1 [I-87]
IC50: ≤ 500 nM

COc1cc(-c2nc(Nc3ncc(-c4cccs4)cc3C(=O)O)sc2CCC(C)C)ccc1C(F)(F)F [I-88]
IC50: ≤ 500 nM

CC(C)COc1cc(-c2nc(Nc3ncc(-c4cccs4)cc3C(=O)O)sc2CC(C)C)ccc1F [I-89]
IC50: ≤ 500 nM

COc1cc(-c2nc(Nc3ncc(-c4cccs4)cc3C(=O)O)sc2CCC(C)C)ccc1Cl [I-90]
IC50: ≤ 500 nM

COc1cc(-c2nc(Nc3ncc(-c4cccs4)cc3C(=O)O)sc2CC(C)(C)C)ccc1F [I-91]
IC50: ≤ 500 nM

CCOc1cc(-c2nc(Nc3ncc(-c4cccs4)cc3C(=O)O)sc2CC(C)(C)C)ccc1F [I-92]
IC50: ≤ 500 nM

CCOc1cc(-c2nc(Nc3ncc(-c4cccs4)cc3C(=O)O)sc2CC(C)(C)C)ccc1Cl [I-93]
IC50: ≤ 500 nM

CC(C)COc1cc(-c2nc(Nc3ncc(-c4cccs4)cc3C(=O)O)sc2CC(C)(C)C)ccc1F [I-96]
IC50: ≤ 500 nM

CC(C)COc1cc(-c2nc(Nc3ncc(-c4cccs4)cc3C(=O)O)sc2CC(C)(C)C)ccc1Cl [I-97]
IC50: ≤ 500 nM

CCOc1cccc(-c2nc(Nc3ncc(-c4cccs4)cc3C(=O)O)sc2CC(C)(C)C)c1 [I-98]
IC50: ≤ 500 nM

CC(C)Cc1sc(Nc2ncc(-c3cccs3)cc2C(=O)O)nc1-c1cccc(OCC(F)(F)F)c1 [I-102]
IC50: ≤ 500 nM

CC(C)Cc1sc(Nc2ncc(-c3cccs3)cc2C(=O)O)nc1-c1cccc(OCCF)c1 [I-103]
IC50: ≤ 500 nM

COc1cc(-c2nc(Nc3ncc(-c4cccs4)cc3C(=O)O)sc2CC(C)C)cc(C(F)(F)F)c1 [I-104, 2-((5-isobutyl-4-(3-methoxy-5-(trifluoromethyl)phenyl)thiazol-2-yl)amino)-5-(thiophen-2-yl)nicotinic acid]
IC50: ≤ 500 nM

CCOc1cccc(-c2nc(Nc3ncc(-c4cccs4)cc3C(=O)O)sc2CCC(C)C)c1 [I-105]
IC50: ≤ 500 nM

CCCOc1cccc(-c2nc(Nc3ncc(-c4cccs4)cc3C(=O)O)sc2CC(C)C)c1 [I-106]
IC50: ≤ 500 nM

COc1cc(-c2nc(Nc3ncc(-c4cccs4)cc3C(=O)O)sc2CC(C)C)ccc1C [I-107]
IC50: ≤ 500 nM

COc1cc(-c2nc(Nc3ncc(-c4cccs4)cc3C(=O)O)sc2CCC(C)C)ccc1C [I-108]
IC50: ≤ 500 nM

COc1cc(C)cc(-c2nc(Nc3ncc(-c4cccs4)cc3C(=O)O)sc2CC(C)C)c1 [I-109]
IC50: ≤ 500 nM

CCc1ccc(-c2nc(Nc3ncc(-c4cccs4)cc3C(=O)O)sc2CC(C)C)cc1OC [I-110]
IC50: ≤ 500 nM

CC(C)Cc1sc(Nc2ncc(-c3cccs3)cc2C(=O)O)nc1-c1cccc(O)c1 [I-111]
IC50: 500 to 1000 nM

CCCc1sc(Nc2ncc(-c3cccs3)cc2C(=O)O)nc1-c1cccc(OCC)c1 [I-112]
IC50: ≤ 500 nM

CC(C)Cc1sc(Nc2ncc(-c3cccs3)cc2C(=O)O)nc1-c1cccc(OC(C)C)c1 [I-113]
IC50: ≤ 500 nM

Cc1ccc(-c2nc(Nc3ncc(-c4cccs4)cc3C(=O)O)sc2CC(C)C)cc1OC(C)C [I-114]
IC50: ≤ 500 nM

CCOc1cccc(-c2nc(Nc3ncc(-c4ccco4)cc3C(=O)O)sc2CC(C)C)c1 [I-115]
IC50: ≤ 500 nM

CC(C)Cc1sc(Nc2ncc(-c3cccs3)cc2C(=O)O)nc1-c1cccc(OCCOCCN(C)C)c1 [I-116]
IC50: > 1000 nM

CCN(CC)CCOCCOc1cccc(-c2nc(Nc3ncc(-c4cccs4)cc3C(=O)O)sc2CC(C)C)c1 [I-117]
IC50: > 1000 nM

COCCOc1cc(C)cc(-c2nc(Nc3ncc(-c4cccs4)cc3C(=O)O)sc2CC(C)C)c1 [I-118]
IC50: ≤ 500 nM

COCCOc1cccc(-c2nc(Nc3ncc(-c4cccs4)cc3C(=O)O)sc2CC(C)C)c1 [I-122, 2-((5-isobutyl-4-(3-(2-methoxyethoxy)phenyl)thiazol-2-yl)amino)-5-(thiophen-2-yl)nicotinic acid]
IC50: ≤ 500 nM

CCc1cccc(-c2nc(Nc3ncc(-c4cccs4)cc3C(=O)O)sc2CC(C)C)c1 [I-123]
IC50: ≤ 500 nM

CC(C)Cc1sc(Nc2ncc(-c3cccs3)cc2C(=O)O)nc1-c1ccc2c(c1)OCO2 [I-124, 2-((4-(benzo[d][1,3]dioxol-5-yl)-5-isobutylthiazol-2-yl)amino)-5-(thiophen-2-yl)nicotinic acid]
IC50: ≤ 500 nM

CC(C)Cc1sc(Nc2ncc(-c3cccs3)cc2C(=O)O)nc1-c1ccc2c(c1)OC(C)(C)O2 [I-125]
IC50: ≤ 500 nM

CC(C)Cc1sc(Nc2ncc(-c3cccs3)cc2C(=O)O)nc1-c1cccs1 [I-126]
IC50: ≤ 500 nM

CC(C)Cc1sc(Nc2ncc(-c3cccs3)cc2C(=O)O)nc1-c1ccsc1 [I-127]
IC50: ≤ 500 nM

CC(C)Cc1sc(Nc2ncc(-c3cccs3)cc2C(=O)O)nc1-c1cccc(Oc2ccccc2)c1 [I-129, 2-((5-isobutyl-4-(3-phenoxyphenyl)thiazol-2-yl)amino)-5-(thiophen-2-yl)nicotinic acid]
IC50: ≤ 500 nM

CCOc1cccc(-c2nc(Nc3cc(C(=O)O)c(-c4cccs4)cn3)sc2CC(C)C)c1 [I-130, 2-((4-(3-ethoxyphenyl)-5-isobutylthiazol-2-yl)amino)-5-(thiophen-2-yl)isonicotinic acid]
IC50: 500 to 1000 nM

Cc1ccc(-c2nc(Nc3ncc(-c4cccs4)cc3C(=O)O)sc2CC(C)C)s1 [I-141]
IC50: ≤ 500 nM

COCCOc1cccc(-c2nc(Nc3ncc(-c4cccs4)cc3C(=O)OC)sc2CC(C)C)c1 [I-148, methyl 2-((5-isobutyl-4-(3-(2-methoxyethoxy)phenyl)thiazol-2-yl)amino)-5-(thiophen-2-yl)nicotinate]
IC50: > 1000 nM
